Measured values from patent US20240261411A1, “PERMEATION ENHANCERS FOR GASTROINTESTINAL SYNTHETIC EPITHELIAL LININGS” (Syntis Bio, Inc., priority 2023, published 2024).

What was measured:
[1] = pig model, semaglutide pharmacokinetics after endoscopic placement or IV; parameters: species or system Yorkshire pigs; details: in vivo, 1.5 mg/kg
Description: Yorkshire pigs, weighing 40-80 kg each over 7 months and approximately 4-9 months of age were used. Following routine preoperative fast, pigs were anesthetized, intubated, and maintained on isoflurane anesthesia during the procedure. An indwelling marginal ear vein catheter was be inserted for blood collection, which occurred over 1-7 days. Dry GSEL powders containing permeation enhancers and semaglutide were solubilized with Tris buffer immediately before administration. An endoscope guided catheter was placed into the proximal small intestines, where the GSEL suspensions were injected. Blood was taken periodically from the ear vein catheter and the blood was immediately centrifuged down in serum collection tubes. Samples were analyzed via ELISA and LC-MS. Pigs were woken up after 6 hours and monitored until full recovery.
For the following experiment, a ratio of formulation components as presented in Table E8 was used (e.g., 2×GSEL, 6.4 mg/kg GCA, 6.4 mg/kg NHCO, with semaglutide at a final ratio of 20:2.35 permeation enhancer to semaglutide).

[2] = Franz cell permeability of semaglutide; details: Franz cells, porcine duodenal tissue
Description: Franz cells were used for testing different permeation enhancers on ex vivo tissue from the small intestine, such as porcine duodenal tissue (or colon tissue where indicated). Water pumps were attached to the Franz cell rack to maintain each Franz cell at 37° C. The racks were loaded with Franz cells, and each cell was filled with 5 mL of phosphate buffered saline. Tissue was cut into ˜3.2×3.2 cm squares and any large clumps of mucus or excrement was removed before mounting onto the Franz cells. Next, gastrointestinal synthetic epithelial lining (GSEL) solutions were prepared by first weighing out dopamine HCl, polydopamine, and a permeation enhancer into a vial. […] Samples from the receiving compartment was periodically collected from 0 to 24 hours and the concentration of API was measured. […]
The same experiment was carried out, except without using a permeation enhancer in the GSEL solution. The amount of API detected in the receiving compartment for GSELS with permeation enhancer was compared to the amount of API detected in the receiving compartment for GSELs without permeation enhancer at each time point to determine the increase in permeation provided by the permeation enhancer.

Structure (SMILES)	absorption, in words [1]	semaglutide permeability, comparison in words [2]
CC[C@H](C)[C@H](NC(=O)[C@H](Cc1ccccc1)NC(=O)[C@H](CCC(=O)O)NC(=O)[C@H](CCCCNC(=O)COCCOCCNC(=O)COCCOCCNC(=O)CC[C@H](NC(=O)CCCCCCCCCCCCCCCCC(=O)O)C(=O)O)NC(=O)[C@H](C)NC(=O)[C@H](C)NC(=O)[C@H](CCC(N)=O)NC(=O)CNC(=O)[C@H](CCC(=O)O)NC(=O)[C@H](CC(C)C)NC(=O)[C@H](Cc1ccc(O)cc1)NC(=O)[C@H](CO)NC(=O)[C@H](CO)NC(=O)[C@@H](NC(=O)[C@H](CC(=O)O)NC(=O)[C@H](CO)NC(=O)[C@@H](NC(=O)[C@H](Cc1ccccc1)NC(=O)[C@@H](NC(=O)CNC(=O)[C@H](CCC(=O)O)NC(=O)C(C)(C)NC(=O)[C@@H](N)Cc1cnc[nH]1)[C@@H](C)O)[C@@H](C)O)C(C)C)C(=O)N[C@@H](C)C(=O)N[C@@H](Cc1c[nH]c2ccccc12)C(=O)N[C@@H](CC(C)C)C(=O)N[C@H](C(=O)N[C@@H](CCCNC(=N)N)C(=O)NCC(=O)N[C@@H](CCCNC(=N)N)C(=O)NCC(=O)O)C(C)C [Control (semaglutide only), semaglutide]	zero absorption	–
O=C([O-])CCCCCCCNC(=O)c1ccccc1O.[Na+] [SNAC, sodium N-[8-(2-hydroxybenzoyl)amino]caprylate]	–	did not promote permeation of semaglutide as much
